Several values for one entry are separate records, joined by “and”; a condition that tells them apart may be missing. Equal entries are not always repeated.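 Values below derive from 48-hour exposures of cells grown in 96-well plates, with endpoints linearly interpolated between the two concentrations bracketing the appropriate inhibition level. At the GI50, growth is halved. Definition used: TGI = concentration required for complete inhibition of growth.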

The values below come from PubChem BioAssay (NCI).

Among the test systems are OVCAR-5 ovarian; SN12C renal; NCI/ADR-RES ovarian; SK-MEL-28 melanoma; OVCAR-3 ovarian; SNB-19 CNS; DU-145 prostate; RPMI-8226 leukemia; SF-539 CNS; HCT-15 colon.
Holding throughout (experiment): NCI-60 cell line screen, 48 h

Turning to `Cc1cc(S(=O)(=O)Nc2nc3ccccc3[nH]2)c(SCc2ccccc2)cc1Cl`, the GI50 with OVCAR-5 ovarian is more than 100 µM; in the assay on SN12C renal, 29.6 µM; with NCI/ADR-RES ovarian it was more than 100 µM; in the assay with SK-MEL-28 melanoma, more than 100 µM; in the assay with OVCAR-3 ovarian it was 14.2 µM; in the assay on SNB-19 CNS, 36 µM. In addition, the GI50 in the assay on DU-145 prostate is more than 100 µM; in the assay on RPMI-8226 leukemia, 28.9 µM; with SF-539 CNS, 19.8 µM; in the assay on HCT-15 colon it was more than 100 µM. The TGI in the assay with OVCAR-5 ovarian was more than 100 µM; in the assay on SN12C renal, more than 100 µM; in the assay with NCI/ADR-RES ovarian it was more than 100 µM; in the assay on SK-MEL-28 melanoma it was more than 100 µM; with OVCAR-3 ovarian it was 58.4 µM; with SNB-19 CNS, more than 100 µM. In addition, the TGI is more than 100 µM in the assay on DU-145 prostate, more than 100 µM with RPMI-8226 leukemia, 52.8 µM in the assay with SF-539 CNS and more than 100 µM with HCT-15 colon.
Take `CC1=C/C(O)CC(=O)Cc2nc(co2)C(=O)N2CCC=C2C(=O)OC(C(C)C)C(C)/C=C\C(=O)NC/C=C\1` (centres undefined): the GI50 in the assay with OVCAR-5 ovarian is 31.6 µM; in the assay with SN12C renal, 25.9 µM; in the assay on NCI/ADR-RES ovarian, more than 100 µM; in the assay on OVCAR-3 ovarian, 13.6 µM; with SNB-19 CNS it was 18.1 µM; in the assay on DU-145 prostate, 18.5 µM. The GI50 is 7.98 µM in the assay with RPMI-8226 leukemia, 10.9 µM with SF-539 CNS and 28.8 µM in the assay on HCT-15 colon. In addition, the TGI in the assay on OVCAR-5 ovarian was 71.8 µM and 75.6 µM; with SN12C renal, > 100 µM and 29.2 µM; with NCI/ADR-RES ovarian, more than 100 µM; in the assay on SK-MEL-28 melanoma it was 44.6 µM and 46.3 µM; in the assay on OVCAR-3 ovarian, 37.6 µM and 93.6 µM; in the assay with SNB-19 CNS it was 40.3 µM and > 100 µM. The TGI in the assay with DU-145 prostate is 45.2 µM and > 100 µM; in the assay with RPMI-8226 leukemia it was > 100 µM and 43.4 µM; with SF-539 CNS, 46.3 µM and > 100 µM; with HCT-15 colon, > 89.5 µM and 46.6 µM.
On to `O=C(Nc1nc(-c2ccccc2)cs1)c1cc(O)c(O)c(O)c1`, for which the GI50 in the assay on OVCAR-5 ovarian is 18.2 µM; in the assay with SN12C renal, 3.19 µM; in the assay with NCI/ADR-RES ovarian it was 3.7 µM; with SK-MEL-28 melanoma, 7.18 µM; in the assay on OVCAR-3 ovarian it was 3.39 µM; in the assay with SNB-19 CNS it was 2.61 µM. Besides, the GI50 is 6.41 µM in the assay with DU-145 prostate, 2.99 µM with RPMI-8226 leukemia, 2.77 µM in the assay on SF-539 CNS and 3.14 µM with HCT-15 colon. The TGI in the assay on OVCAR-5 ovarian was 47.7 µM; with SN12C renal, 29.9 µM; in the assay on NCI/ADR-RES ovarian, more than 100 µM; with SK-MEL-28 melanoma, 60.8 µM; in the assay on OVCAR-3 ovarian, 13.6 µM; with SNB-19 CNS, more than 100 µM. Besides, the TGI in the assay with DU-145 prostate is more than 100 µM; in the assay on RPMI-8226 leukemia, 22.1 µM; with SF-539 CNS, 11.9 µM; in the assay with HCT-15 colon it was more than 100 µM.
With `NC(=S)N/N=C/c1ccc(OC(=O)COc2ccccc2)cn1`, the GI50 in the assay on OVCAR-5 ovarian is 49.7 µM; in the assay on SN12C renal it was 5.3 µM; in the assay with NCI/ADR-RES ovarian, 4.14 µM; in the assay on SK-MEL-28 melanoma, 44.4 µM; with OVCAR-3 ovarian, 2.17 µM; in the assay with SNB-19 CNS it was 28.5 µM. The GI50 was 2.72 µM in the assay on DU-145 prostate, 7.47 µM with RPMI-8226 leukemia, 2.94 µM in the assay with SF-539 CNS and 20.2 µM in the assay with HCT-15 colon. In addition, the TGI in the assay on OVCAR-5 ovarian, in the assay with SN12C renal, with NCI/ADR-RES ovarian, with SK-MEL-28 melanoma, in the assay with OVCAR-3 ovarian and with SNB-19 CNS was more than 100 µM each time. The TGI with DU-145 prostate is 8.96 µM; in the assay with RPMI-8226 leukemia it was more than 100 µM; with SF-539 CNS it was 10.9 µM; with HCT-15 colon, more than 100 µM.
Regarding `C[C@@H]1CC[C@@H]2[C@@H]1[C@H](OC(=O)c1ccc3ccccc3c1)[C@]1(C3CCCCC3)C[C@@H](OC(=O)CO)[C@@]2(C)O1`, the GI50 in the assay on OVCAR-5 ovarian is 14.8 µM; with SN12C renal it was 0.0525 µM; with NCI/ADR-RES ovarian, 0.543 µM; in the assay on SK-MEL-28 melanoma, 13.9 µM; in the assay with OVCAR-3 ovarian, 12.9 µM; in the assay on SNB-19 CNS, 14.6 µM. The GI50 in the assay with DU-145 prostate was 12.2 µM; in the assay with RPMI-8226 leukemia, 5.03 µM; in the assay on SF-539 CNS it was 13.7 µM; in the assay on HCT-15 colon, 7.93 µM. Also, the TGI with OVCAR-5 ovarian came out at 30 µM; with SN12C renal, 12.6 µM; in the assay with NCI/ADR-RES ovarian, 19.4 µM; in the assay on SK-MEL-28 melanoma, 28.5 µM; in the assay with OVCAR-3 ovarian it was 27.1 µM; in the assay with SNB-19 CNS, 28.8 µM. For the same compound, the TGI amounted to 25.9 µM in the assay with DU-145 prostate, 22.8 µM in the assay on RPMI-8226 leukemia, 27.9 µM with SF-539 CNS and 22.4 µM with HCT-15 colon.
For `c1ccc2c(-c3cnn4cc(-c5ccc(N6CCNCC6)cc5)cnc34)ccnc2c1`, the GI50 in the assay on OVCAR-5 ovarian was 0.806 µM; in the assay with SN12C renal, 1.22 µM; in the assay on NCI/ADR-RES ovarian it was 1.72 µM; in the assay with SK-MEL-28 melanoma, 0.182 µM; in the assay on OVCAR-3 ovarian it was 1.41 µM; with SNB-19 CNS, 1.25 µM. Moreover, the GI50 is 0.739 µM in the assay with DU-145 prostate, 0.327 µM with RPMI-8226 leukemia, 1.31 µM with SF-539 CNS and 0.325 µM in the assay with HCT-15 colon. Moreover, the TGI was found to be 2.24 µM in the assay on OVCAR-5 ovarian; 2.62 µM with SN12C renal; 3.42 µM with NCI/ADR-RES ovarian; 0.35 µM with SK-MEL-28 melanoma; 2.72 µM with OVCAR-3 ovarian; 2.56 µM in the assay with SNB-19 CNS. The TGI in the assay with DU-145 prostate came out at 2.06 µM; with RPMI-8226 leukemia, 0.931 µM; in the assay with SF-539 CNS it was 2.6 µM; with HCT-15 colon, 1.45 µM.
Turning to `CNC(=O)/C(=C/c1ccc(OC)cc1)c1cc(OC)c(OC)c(OC)c1`, the TGI in the assay on OVCAR-5 ovarian was more than 93.3 µM; in the assay on SN12C renal, 98.1 µM; in the assay on NCI/ADR-RES ovarian, more than 100 µM; in the assay on SK-MEL-28 melanoma, more than 100 µM; in the assay with OVCAR-3 ovarian it was 2.5 µM; with SNB-19 CNS, 54.8 µM. Further, the TGI with DU-145 prostate was more than 43 µM; with RPMI-8226 leukemia, more than 100 µM; in the assay with SF-539 CNS, 3.58 µM; in the assay with HCT-15 colon it was more than 100 µM.
In the case of `Cc1ccc(N(/C=C/C(=O)C(F)(F)F)CC(=O)c2ccc(Cl)c(Cl)c2)cc1`, the GI50 in the assay with OVCAR-5 ovarian is 4.7 µM; with SN12C renal, 13.1 µM; in the assay on NCI/ADR-RES ovarian, 2.76 µM; with SK-MEL-28 melanoma it was 11.2 µM; in the assay with OVCAR-3 ovarian, 3.19 µM; with SNB-19 CNS, 12.9 µM. Moreover, the GI50 is 5.77 µM with DU-145 prostate, 10.8 µM with RPMI-8226 leukemia, 2.77 µM in the assay on SF-539 CNS and 3.64 µM in the assay with HCT-15 colon. The TGI came out at 20.6 µM in the assay on OVCAR-5 ovarian; 25.8 µM with SN12C renal; 13.4 µM in the assay with NCI/ADR-RES ovarian; 23.2 µM in the assay on SK-MEL-28 melanoma; 16.3 µM in the assay with OVCAR-3 ovarian; 25.5 µM in the assay with SNB-19 CNS. In addition, the TGI in the assay with DU-145 prostate is 20.3 µM; in the assay with RPMI-8226 leukemia, 27 µM; with SF-539 CNS it was 17 µM; in the assay on HCT-15 colon, 14.5 µM.
